This assay has as its system IgG1 and IgG2a antibodies to TT. The arrangement: species or system mice. As to conditions: mouse, in vivo.

Structures are written as SMILES.

`CCCCCCCCCCCCCCCCCCCCCCCCCC(=O)N[C@@H](CO[C@H]1OC(CO)[C@H](O)C(O)C1O)[C@H](O)[C@@H](O)CCCCCCCCCCCCCC` (stereo partly drawn) [α-GC, α-galactosylceramide]: the “production of IgG1 and IgG2a antibodies compared to CFA, CpG, MF59 and Alum” value is on record as “overall as potent as the above benchmark adjuvants”.

(Values after patent publication US20140308313A1 (priority 2006, published 2014).)
